Reference: US20090068290A1, “BIFEPRUNOX DOSES FOR TREATING SCHIZOPHRENIA” (priority 2006, published 2009)

Columns and labels:
[1] = Incidence of hyperglycemia and diabetes-related adverse events in placebo-controlled trials; assay type: in vivo, human
Description: Hyperglycemia, in some cases extreme and associated with ketoacidosis or hyperosmolar coma or death, has been reported in patients treated with atypical antipsychotics. The incidence of hyperglycemia and diabetes-related adverse events (such as hyperglycemia, elevated blood glucose, impaired glucose tolerance, diabetes mellitus, inadequately controlled diabetes) in patients treated with bifeprunox was 0.5% (5/1050) and in placebo-treated patients was 0.6% (3/469) in six-week placebo-controlled trials. […] Assessment of the relationship between atypical antipsychotic use and glucose abnormalities is complicated by the possibility of an increased background risk of diabetes mellitus in patients with schizophrenia and the increasing incidence of diabetes mellitus in the general population. Given these confounders, the relationship between atypical antipsychotic use and hyperglycemia-related adverse events is not completely understood. […] Because bifeprunox was not marketed at the time these studies were performed, it is not known if bifeprunox is associated with this increased risk. Precise risk estimates for hyperglycemia-related adverse events in patients treated with atypical antipsychotics are not available.

[2] = Weight, BMI and waist measurement, Clinical Study Four; assay type: in vivo, human
Protocol: METHODOLOGY: This study was a multinational, multicenter, randomized, double-blind, parallel-group, placebo-controlled, fixed-dose study. The study consisted of a 3- to 6-day antipsychotic-free run-in period, after which patients were randomised to 6 months of double-blind treatment with fixed doses of bifeprunox (20 mg/day (BX20) or 30 mg/day (BX30)) or placebo (PBO). Patients allocated to the BX groups were up-titrated from 0.25 mg/day over 7 days (BX20) or 8 days (BX30), and then continued on these doses for the remainder of the study. […] At predetermined time points, blood samples were obtained for drug concentration analysis of BX and its major metabolites (3′- and 4′-sulfate conjugates of BX), and pharmaco-economic assessments were performed.

[3] = Pooled metabolic analysis, 6-week studies: glucose
Description: (§1) OBJECTIVE: To examine the metabolic effects of bifeprunox in patients with acute and stable schizophrenia.
(§2) METHODS: Metabolic data was compiled from one 6-month and four 6-week studies (i.e., a treatment period) of bifeprunox in patients with stable and acute schizophrenia, respectively. In the 6-month study, patients received bifeprunox (n=331) or placebo (PBO) (n=166). […] Metabolic evaluations included body weight, body mass index (BMI), plasma glucose and lipid profiles. Fasting glucose and lipid values were assessed in one 6-week study and in the 6-month study. Triglyceride:HDL ratio (TG:HDL) was calculated as a marker of insulin resistance. No statistical analyses were performed; only descriptive statistics are presented.

[4] = Pooled metabolic analysis, 6-month study: glucose
Description: as §1, §2

[5] = BX20 (bifeprunox 20 mg), Last post-Baseline observation, APTS
[6] = BX20 (bifeprunox 20 mg), Month 3, APTS
[7] = BX20 (bifeprunox 20 mg), Month 6, APTS
[8] = BX20 (bifeprunox 20 mg), Week 6, APTS
[9] = BX20 (bifeprunox 20 mg), visit printed as Baseline, APTS
[10] = BX30 (bifeprunox 30 mg), Last post-Baseline observation, APTS
[11] = BX30 (bifeprunox 30 mg), Month 3, APTS
[12] = BX30 (bifeprunox 30 mg), Month 6, APTS
[13] = BX30 (bifeprunox 30 mg), Week 6, APTS

Q: What does the source list for `O=c1[nH]c2cccc(N3CCN(Cc4cccc(-c5ccccc5)c4)CC3)c2o1` [Bifeprunox, 7-[4-([1,1′-biphenyl]-3-ylmethyl)-1-piperazinyl]-2(3H)-benzoxazolone]?
A: hyperglycemia or diabetes-related adverse events ([1]; 26-week placebo-controlled trial): no patients reported; incidence of hyperglycemia and diabetes-related adverse events ([1]; six-week placebo-controlled trials): 0.5%; BMI, Mean [2, 5]: 24.3; BMI, Median [2, 5]: 23.7; Change from Baseline in BMI, Mean [2, 5]: −0.4; Change from Baseline in BMI, Median [2, 5]: 0.0; Change from Baseline in Weight, Mean [2, 5]: -1.0 kg; Change from Baseline in Weight, Median [2, 5]: 0.0 kg; Waist measurement, Mean [2, 5]: 81.6; Waist measurement, Median [2, 5]: 79.5; Weight PCS High (Increase from baseline >= 7%), (%) [2, 5]: (2.8) %; Weight PCS Low (Decrease from baseline >= 7%), (%) [2, 5]: (9.1) %; Weight, Mean [2, 5]: 69.7 kg; Weight, Median [2, 5]: 68.0 kg; BMI, Mean [2, 6]: 23.9; BMI, Median [2, 6]: 23.1; Change from Baseline in BMI, Mean [2, 6]: −0.2; Change from Baseline in BMI, Median [2, 6]: 0.0; Change from Baseline in Waist Measurement, Mean [2, 6]: −1.1; Change from Baseline in Waist Measurement, Median [2, 6]: 0.0; Change from Baseline in Weight, Mean [2, 6]: -0.6 kg; Change from Baseline in Weight, Median [2, 6]: 0.0 kg; Waist measurement, Mean [2, 6]: 79.5; Waist measurement, Median [2, 6]: 76.5; Weight PCS High (Increase from baseline >= 7%), (%) [2, 6]: (0.0) %; Weight, Mean [2, 6]: 68.1 kg; Weight, Median [2, 6]: 66.0 kg; BMI, Mean [2, 7]: 23.9; BMI, Median [2, 7]: 23.1; Change from Baseline in BMI, Mean [2, 7]: −0.2; Change from Baseline in BMI, Median [2, 7]: 0.0; Change from Baseline in Waist Measurement, Mean [2, 7]: −0.9; Change from Baseline in Waist Measurement, Median [2, 7]: 0.0; Change from Baseline in Weight, Mean [2, 7]: -0.6 kg; Change from Baseline in Weight, Median [2, 7]: 0.0 kg; Waist measurement, Mean [2, 7]: 79.4; Waist measurement, Median [2, 7]: 77.7; Weight PCS High (Increase from baseline >= 7%), (%) [2, 7]: (6.8) %; Weight PCS Low (Decrease from baseline >= 7%), (%) [2, 7]: (10.2) %; Weight, Mean [2, 7]: 68.2 kg; Weight, Median [2, 7]: 67.0 kg; BMI, Mean [2, 8]: 24.3; BMI, Median [2, 8]: 23.8; Change from Baseline in BMI, Mean [2, 8]: −0.2; Change from Baseline in BMI, Median [2, 8]: 0.0; Change from Baseline in Waist Measurement, Mean [2, 8]: −1.1; Change from Baseline in Waist Measurement, Median [2, 8]: 0.0; Change from Baseline in Weight, Mean [2, 8]: -0.6 kg; Change from Baseline in Weight, Median [2, 8]: 0.0 kg; Waist measurement, Mean [2, 8]: 81.6; Waist measurement, Median [2, 8]: 78.0; Weight PCS High (Increase from baseline >= 7%), (%) [2, 8]: (0.0) %; Weight PCS Low (Decrease from baseline >= 7%), (%) [2, 8]: (4.8) %; Weight, Mean [2, 8]: 69.7 kg; Weight, Median [2, 8]: 67.0 kg; Change from Baseline in Waist Measurement, Mean [2, 9]: −0.0; Change from Baseline in Waist Measurement, Median [2, 9]: 0.0; BMI, Mean [2, 10]: 24.5; BMI, Median [2, 10]: 23.7; Change from Baseline in BMI, Mean [2, 10]: −0.4; Change from Baseline in BMI, Median [2, 10]: 0.0; Change from Baseline in Waist Measurement, Mean [2, 10]: −0.4; Change from Baseline in Waist Measurement, Median [2, 10]: 4.4; Change from Baseline in Weight, Mean [2, 10]: -1.2 kg; Change from Baseline in Weight, Median [2, 10]: 0.0 kg; Waist measurement, Mean [2, 10]: 82.6; Waist measurement, Median [2, 10]: 80.4; Weight PCS High (Increase from baseline >= 7%), (%) [2, 10]: (2.7) %; Weight PCS Low (Decrease from baseline >= 7%), (%) [2, 10]: (9.5) %; Weight, Mean [2, 10]: 70.9 kg; Weight, Median [2, 10]: 68.5 kg; BMI, Mean [2, 11]: 24.4; BMI, Median [2, 11]: 23.4; Change from Baseline in BMI, Median [2, 11]: −0.1; Change from Baseline in Waist Measurement, Mean [2, 11]: −0.4; Change from Baseline in Waist Measurement, Median [2, 11]: 0.0; Change from Baseline in Weight, Mean [2, 11]: -1.1 kg; Change from Baseline in Weight, Median [2, 11]: -0.5 kg; Waist measurement, Mean [2, 11]: 81.6; Waist measurement, Median [2, 11]: 79.5; Weight PCS Low (Decrease from baseline >= 7%), (%) [2, 11]: (11.4) %; Weight, Mean [2, 11]: 70.1 kg; Weight, Median [2, 11]: 68.0 kg; BMI, Mean [2, 12]: 24.4; BMI, Median [2, 12]: 23.7; Change from Baseline in BMI, Mean [2, 12]: −0.0; Change from Baseline in BMI, Median [2, 12]: 0.0; Change from Baseline in Waist Measurement, Mean [2, 12]: −0.0; Change from Baseline in Waist Measurement, Median [2, 12]: 0.1; Change from Baseline in Weight, Mean [2, 12]: -0.1 kg; Change from Baseline in Weight, Median [2, 12]: 0.0 kg; Waist measurement, Mean [2, 12]: 81.1; Waist measurement, Median [2, 12]: 78.0; Weight PCS High (Increase from baseline >= 7%), (%) [2, 12]: (7.3) %; Weight PCS Low (Decrease from baseline >= 7%), (%) [2, 12]: (7.3) %; Weight, Mean [2, 12]: 71.4 kg; Weight, Median [2, 12]: 70.0 kg; BMI, Mean [2, 13]: 24.8; BMI, Median [2, 13]: 23.9; Change from Baseline in BMI, Mean [2, 13]: −0.3; Change from Baseline in BMI, Median [2, 13]: 0.0; Change from Baseline in Waist Measurement, Mean [2, 13]: −0.0; Change from Baseline in Waist Measurement, Median [2, 13]: 0.0; Change from Baseline in Weight, Mean [2, 13]: -0.9 kg; Change from Baseline in Weight, Median [2, 13]: 0.0 kg; Waist measurement, Mean [2, 13]: 83.9; Waist measurement, Median [2, 13]: 80.0; Weight PCS High (Increase from baseline >= 7%), (%) [2, 13]: (0.0) %; Weight PCS Low (Decrease from baseline >= 7%), (%) [2, 13]: (4.7) %; Weight, Mean [2, 13]: 72.2 kg; Weight, Median [2, 13]: 70.0 kg; change in mean fasting glucose at endpoint [3]: -1.44 mg/dL; decrease in mean fasting glucose at endpoint [3]: 1.6%; change in mean fasting glucose at endpoint ([4]; 6-month study): +4.32 mg/dL; change in non-fasting glucose at endpoint ([4]; bifeprunox total group): +1.16 mg/dL
